Data reported in ChEMBL document CHEMBL1128085, “Asymmetric synthesis of FR165914: A novel 3-adrenergic agonist with a benzocycloheptene structure” (Bioorg Med Chem Lett, 1995).

Assays:
[1] = target: Beta-1 adrenergic receptor (Cavia porcellus, UniProt B0FL73); experiment: Agonistic activity against Beta-1 adrenergic receptor in guinea pig atrium; format: functional, tissue-based, Cardiac atrium
[2] = target: Beta-3 adrenergic receptor (Rattus norvegicus, UniProt P26255); experiment: Agonistic activity against Beta-3 adrenergic receptor in rat colon; format: functional
Chain of Beta-3 adrenergic receptor (P26255 whole entry): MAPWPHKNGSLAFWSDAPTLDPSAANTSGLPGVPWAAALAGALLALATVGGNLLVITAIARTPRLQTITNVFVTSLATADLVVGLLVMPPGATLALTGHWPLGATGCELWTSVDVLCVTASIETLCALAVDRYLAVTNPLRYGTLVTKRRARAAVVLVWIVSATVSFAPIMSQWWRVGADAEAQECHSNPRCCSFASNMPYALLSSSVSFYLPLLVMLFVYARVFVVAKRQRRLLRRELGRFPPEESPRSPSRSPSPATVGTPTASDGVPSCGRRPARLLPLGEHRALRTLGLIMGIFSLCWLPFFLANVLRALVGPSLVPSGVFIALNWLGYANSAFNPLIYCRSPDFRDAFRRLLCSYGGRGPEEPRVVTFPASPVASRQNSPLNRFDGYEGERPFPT

Chain of Beta-1 adrenergic receptor (B0FL73 whole entry): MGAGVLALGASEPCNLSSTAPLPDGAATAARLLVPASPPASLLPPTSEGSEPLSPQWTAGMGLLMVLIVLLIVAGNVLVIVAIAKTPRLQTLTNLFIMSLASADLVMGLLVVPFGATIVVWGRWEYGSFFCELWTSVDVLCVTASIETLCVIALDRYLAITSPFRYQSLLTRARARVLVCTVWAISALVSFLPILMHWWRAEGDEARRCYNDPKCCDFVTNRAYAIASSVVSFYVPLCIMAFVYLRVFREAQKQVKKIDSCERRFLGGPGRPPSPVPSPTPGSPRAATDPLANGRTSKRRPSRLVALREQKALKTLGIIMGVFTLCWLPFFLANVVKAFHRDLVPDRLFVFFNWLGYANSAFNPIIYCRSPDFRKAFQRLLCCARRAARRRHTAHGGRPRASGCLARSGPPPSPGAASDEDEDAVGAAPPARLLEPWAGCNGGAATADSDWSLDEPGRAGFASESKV

EC50 [1]: > 10000 nM | IC50 [2]: 6 nM
Compound: O=C(O)C1(C(=O)O)Oc2cc3c(cc2O1)C[C@@H](NC[C@H](O)c1cccc(Cl)c1)CCC3
